# Values quoted from earlier work in patent US20230241194A1, “PRE-ERYTHROCYTIC MALARIA VACCINES” (PATH, priority 2020, published 2023).
# Molecular target: T1, TLR7 (Homo sapiens, UniProt Q9NYK1)
# T1 sequence (Q9NYK1 27-1049): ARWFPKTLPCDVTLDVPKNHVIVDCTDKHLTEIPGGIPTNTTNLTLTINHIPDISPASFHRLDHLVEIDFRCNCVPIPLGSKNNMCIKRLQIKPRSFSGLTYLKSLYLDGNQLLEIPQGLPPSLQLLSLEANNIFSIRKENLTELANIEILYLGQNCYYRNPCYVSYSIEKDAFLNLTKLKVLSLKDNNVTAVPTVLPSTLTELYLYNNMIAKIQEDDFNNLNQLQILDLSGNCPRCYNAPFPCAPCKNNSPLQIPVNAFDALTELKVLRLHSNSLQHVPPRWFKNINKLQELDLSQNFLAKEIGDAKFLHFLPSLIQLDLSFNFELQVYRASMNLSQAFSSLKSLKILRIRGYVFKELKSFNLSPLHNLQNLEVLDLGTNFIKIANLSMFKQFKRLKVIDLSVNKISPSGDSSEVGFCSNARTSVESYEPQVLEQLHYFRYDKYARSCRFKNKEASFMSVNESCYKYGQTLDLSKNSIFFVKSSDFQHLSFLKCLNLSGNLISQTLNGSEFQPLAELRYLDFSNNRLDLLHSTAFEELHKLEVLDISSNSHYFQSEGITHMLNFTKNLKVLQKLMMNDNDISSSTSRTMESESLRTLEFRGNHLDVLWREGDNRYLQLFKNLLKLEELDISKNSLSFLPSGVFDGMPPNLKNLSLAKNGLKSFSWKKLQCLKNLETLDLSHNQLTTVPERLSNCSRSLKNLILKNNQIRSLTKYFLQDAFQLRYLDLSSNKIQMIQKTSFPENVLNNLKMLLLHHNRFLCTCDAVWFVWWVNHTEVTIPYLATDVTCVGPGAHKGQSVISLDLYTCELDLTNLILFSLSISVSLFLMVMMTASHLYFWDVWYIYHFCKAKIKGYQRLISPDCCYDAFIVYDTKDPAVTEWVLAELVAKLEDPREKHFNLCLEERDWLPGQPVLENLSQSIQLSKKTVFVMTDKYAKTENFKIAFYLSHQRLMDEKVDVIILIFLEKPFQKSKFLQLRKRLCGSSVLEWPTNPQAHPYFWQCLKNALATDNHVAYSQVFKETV
# Conditions: reported in PTL 1
smiles,measurement,value
"CCC[C@@H](CCO)Nc1nc(N)nc(C)c1Cc1ccc(CN(C)CCNC(=O)CC/C(C)=C/CC/C(C)=C/CC/C(C)=C/CC/C=C(\C)CC/C=C(\C)CCC=C(C)C)cc1 [Compound A, (4E,8E,12E,16E,20E)-N-{2-[{4-[(2-amino-4-{[(3S)-1-hydroxyhexan-3-yl]amino}-6-methylpyrimidin-5-yl)methyl]benzyl}(methyl)amino]ethyl}-4,8,12,17,21,25-hexamethylhexacosa-4,8,12,16,20,24-hexaenamide]",TLR7 agonistic activity,having TLR7 agonistic activity
